The values below come from BindingDB's records for doi:10.1016/j.bmc.2018.08.021 (Zhengzhou University, 2018).

Series [1] can be described thus: Inhibition of ABCB1 in human SW620/Ad300 cells assessed as potentiation of cisplatin-induced cytotoxicity by measuring cisplatin IC50 at 4 uM after 72 hrs by MTT assay (Rvb = 0.61 +/- 0.03 microM).
A short description of series [2]: Inhibition of ABCB1 in human SW620/Ad300 cells assessed as potentiation of cisplatin-induced cytotoxicity by measuring cisplatin IC50 at 10 uM after 72 hrs by MTT assay (Rvb = 0.61 +/- 0.03 microM). A general note: Tetrazolium dyes change colour on reduction, which living cells bring about.
The nature of series [3]: Inhibition of ABCB1 in human SW620/Ad300 cells assessed as potentiation of cisplatin-induced cytotoxicity by measuring cisplatin IC50 at 20 uM after 72 hrs by MTT assay (Rvb = 0.61 +/- 0.03 microM).
The nature of series [4]: Inhibition of ABCB1 in human SW620/Ad300 cells assessed as potentiation of paclitaxel-induced cytotoxicity by measuring paclitaxel IC50 at 4 uM after 72 hrs by MTT assay (Rvb = 3.39 +/- 0.84 microM).
Series [5] can be described thus: Inhibition of ABCB1 in human SW620/Ad300 cells assessed as potentiation of paclitaxel-induced cytotoxicity by measuring paclitaxel IC50 at 10 uM after 72 hrs by MTT assay (Rvb = 3.39 +/- 0.84 microM).
A short description of series [6]: Inhibition of ABCB1 in human SW620/Ad300 cells assessed as potentiation of paclitaxel-induced cytotoxicity by measuring paclitaxel IC50 at 20 uM after 72 hrs by MTT assay (Rvb = 3.39 +/- 0.84 microM).
Series [7] is described as follows: Inhibition of ABCB1 in human SW620/Ad300 cells assessed as potentiation of doxorubicin-induced cytotoxicity by measuring doxorubicin IC50 at 4 uM after 72 hrs by MTT assay (Rvb = 6.15 +/- 0.63 microM).
A short description of series [8]: Inhibition of ABCB1 in human SW620/Ad300 cells assessed as potentiation of doxorubicin-induced cytotoxicity by measuring doxorubicin IC50 at 10 uM after 72 hrs by MTT assay (Rvb = 6.15 +/- 0.63 microM).
Series [9] can be described thus: Inhibition of ABCB1 in human SW620/Ad300 cells assessed as potentiation of doxorubicin-induced cytotoxicity by measuring doxorubicin IC50 at 20 uM after 72 hrs by MTT assay (Rvb = 6.15 +/- 0.63 microM).
A short description of series [10]: Inhibition of ABCB1 (unknown origin) expressed in HEK293T cells assessed as potentiation of cisplatin-induced cytotoxicity by measuring cisplatin IC50 at 4 uM after 72 hrs by MTT assay (Rvb = 7.22 +/- 0.45 microM).
Series [11] is described as follows: Inhibition of ABCB1 (unknown origin) expressed in HEK293T cells assessed as potentiation of cisplatin-induced cytotoxicity by measuring cisplatin IC50 at 10 uM after 72 hrs by MTT assay (Rvb = 7.22 +/- 0.45 microM).
Series [12] can be described thus: Inhibition of ABCB1 (unknown origin) expressed in HEK293T cells assessed as potentiation of cisplatin-induced cytotoxicity by measuring cisplatin IC50 at 20 uM after 72 hrs by MTT assay (Rvb = 7.22 +/- 0.45 microM).
Series [13] can be described thus: Inhibition of ABCB1 (unknown origin) expressed in HEK293T cells assessed as potentiation of paclitaxel-induced cytotoxicity by measuring paclitaxel IC50 at 4 uM after 72 hrs by MTT assay (Rvb = 0.09 +/- 0.02 microM).
Series [14] can be described thus: Inhibition of ABCB1 (unknown origin) expressed in HEK293T cells assessed as potentiation of paclitaxel-induced cytotoxicity by measuring paclitaxel IC50 at 10 uM after 72 hrs by MTT assay (Rvb = 0.09 +/- 0.02 microM).
Series [15] in a line: Inhibition of ABCB1 (unknown origin) expressed in HEK293T cells assessed as potentiation of paclitaxel-induced cytotoxicity by measuring paclitaxel IC50 at 20 uM after 72 hrs by MTT assay (Rvb = 0.09 +/- 0.02 microM).
Series [16] in a line: Inhibition of ABCB1 (unknown origin) expressed in HEK293T cells assessed as potentiation of doxorubicin-induced cytotoxicity by measuring doxorubicin IC50 at 4 uM after 72 hrs by MTT assay (Rvb = 1.17 +/- 0.09 microM).
Series [17] is described as follows: Inhibition of ABCB1 (unknown origin) expressed in HEK293T cells assessed as potentiation of doxorubicin-induced cytotoxicity by measuring doxorubicin IC50 at 10 uM after 72 hrs by MTT assay (Rvb = 1.17 +/- 0.09 microM).
Series [18] can be described thus: Inhibition of ABCB1 (unknown origin) expressed in HEK293T cells assessed as potentiation of doxorubicin-induced cytotoxicity by measuring doxorubicin IC50 at 20 uM after 72 hrs by MTT assay (Rvb = 1.17 +/- 0.09 microM).

Broadly, the IC50 is the concentration at which inhibition is half-maximal.

For the compound `O=c1cc(-c2ccccc2)[nH]c2nc(SCc3nc4ccccc4[nH]3)nn12`, the IC50 in series [1] was 1590 nM; in [2], 1550 nM; in [3], 1640 nM; in series [4] it was 830 nM; in series [5] it was 1470 nM; in [6], 660 nM. In addition, the IC50 in series [7] came out at 920 nM; in series [8] it was 1280 nM; in series [9], 800 nM; in [10], 7100 nM; in series [11] it was 8260 nM; in series [12], 7160 nM. Besides, the IC50 in [13] is 30 nM; in [14] it was 50 nM; in [15] it was 40 nM; in series [16], 290 nM; in series [17], 380 nM; in series [18], 290 nM.
